# What was measured:
# Format in all cases: in vivo
# [1] = system: mouse renal cell carcinoma cell line RAG; experiment: Antitumor effect in mouse renal cell carcinoma cell line (RAG) graft model
# Experimental: Example 2 Antitumor effect by combination of compound A and anti-PD-1 antibody in mouse renal cell carcinoma cell line (RAG) graft model
# The antitumor effect of administering compound A and anti-PD-1 antibody was evaluated in BALB/c mice (BALB/cAnNCriCrlj, female, Japan Charles River) with 10 mice per group.
# The grafted cells were pre-conditioned in BALB/c mice. The mouse renal cell carcinoma cell line RAG (ATCC) was suspended in EIBSS to a concentration of 2×10^8/mL. An equal volume of Matrigel™ matrix (Japan Becton Dickinson) was added to and thoroughly mixed with the suspension. The mixture was subcutaneously grafted on the right side of BALB/c mice (BALB/cAnNCriCrlj, female, Japan Charles River), at 0.1 mL each. After grafting, the formed tumors were extracted and finely cut. A Tumor Dissociation Kit, Mouse (Miltenyi Biotec K.K.) was then used for stirring in a GentleMACS (Miltenyi Biotec K.K.) to obtain a monocellular suspension. After passing through a 70 μm cell strainer, the cells were collected by centrifugation and cultured in medium containing 10% bovine serum.
# The mouse renal cell carcinoma cell line RAG established by this method was suspended in HBSS to a concentration of […]. The mixture was subsequently grafted onto the right side of BALB/c (BALB/cAnNCriCrij, female, Japan Charles River) in amounts of 0.1 mL each, and the antitumor effect was evaluated.
# On the 7th day after grafting, the long and short diameters of the tumors were measured using an electronic digital caliper (Digirnatic™ caliper by Mitsutoyo Corp.). The mice were divided into groups in such a manner that the average tumor volumes were the same in each group. The tumor volumes were calculated by the following formula.
# (§1) Tumor volume (mm)=Long diameter (n)×short diameter (mm)×short diameter (mm)/2
# (§2) Compound A was dissolved in water for injection (Otsuka Pharmaceutical Factory, Inc.) to a concentration of 2.5 mg/mL. The anti-mouse PD-1 antibody (BioXcell) was diluted with physiological saline (Otsuka Pharmaceutical Factory, Inc.) to a concentration of 1 mg/mL.
# Mice in the compound A administration group were given compound A by oral administration at a dose of 25 mg/kg (10 mL/kg), once per day for 7 days, Mice in the anti-PD-1 antibody administration group were intraperitoneally administered a dose of 200 lig/mouse (200 μL/mouse) on day 0 and day 3, where the starting day of administration was defined as day 0. The mice in the compound A and anti-PD-1 antibody combination group were administered both drugs in the same manner described above.
# With the starting day of administration defined as day 0, the tumor volume of each mouse was measured on day 3 and day 7, The mean tumor volumes in each group are shown in Table 2 and FIG. 2. […]
# [2] = system: mouse hepatocellular carcinoma cell line BNL 1 ME A.7R.1; experiment: Antitumor effect in mouse hepatocellular carcinoma cell line (BNL 1 ME A.7R.1) graft model
# Experimental: Example 3 Antitumor effect by combination of compound A and anti-PD-1 antibody in mouse hepatocellular carcinoma cell line (BNI, 1 ME A.7R.1) graft model
# The antitumor effect of administering compound A and anti-M-1 antibody was evaluated in BALB/c mice (BALB/cAnNCriCrli, female, Japan Charles River) with 10 mice per group.
# The grafted cells were pre-conditioned in BALB/c mice, A suspension of the mouse hepatocellular carcinoma cell line line BNL 1 ME A.7R.1 (ATCC) was subcutaneously grafted onto the right side of BALB/c mice (BALB/cArtNCriCrlj, male, Japan Charles River), at 5×10^6 cells per mouse. After grafting, the formed tumors were extracted and finely cut. The mixture was then stirred with a GentleMACS (Miltenvi Biotec K.K.) to obtain a monocellular suspension. After passing through a cell strainer, the cells were collected by centrifugation and cultured.
# The mouse hepatocellular carcinoma cell line BNL 1 ME A.7R.1 established by this method was suspended in HBSS to a concentration of 1×10^8/mL. The mixture was subsequently grafted onto the right side of BALB/c (BALB/cAnNCrICrlj, female, Japan Charles River) in amounts of 0.1 mL each, and the antitumor effect was evaluated.
# On the 4th day after grafting, the long and short diameters of the tumors were measured using an electronic digital caliper (Digimaticlm caliper by Mitsutoyo Corp.). The mice were divided into groups in such a manner that the average tumor volumes were the same in each group. The tumor volumes were calculated by the following formula.
# Tumor volume […]=Long diameter (mm)×short diameter (mm)×short diameter (mm)/2
# as §2
# Mice in the compound A administration group were given compound A 1w oral administration at a dose of 25 mg/kg (10 mL/kg), once per day for 7 days. Mice in the anti-PD-1 antibody administration group were intraperitoneally administered a dose of 200 μg/mouse (200 μL/mouse) on day 0 and day 3, where the starting day of administration was defined as day 0. The mice in the compound A and anti-PD-1 antibody combination group were administered both drugs in the same manner described above.
# With the starting day of administration defined as day 0, the tumor volume of each mouse was measured on day 3 and day 7.
# The tumor volumes in the control group and in each group on day 7 were compared in Dunnett's multiple comparison test. The final significance level was as follows.
# [3] = system: mouse breast cancer cell line 4T1-Luc2 AcGFP; experiment: Antitumor effect in mouse breast cancer cell line (4T1-Luc2 AcGFP) graft model; conditions: BALB/c mice, anti-PD-1 antibody 0.2 mg/mouse intraperitoneal day 0, 4, 7, 11
# Experimental: Example 1 Antitumor effect by combination of compound A and anti-PD-1 antibody in mouse breast cancer cell line (4T1-Luc2 AcGFP) graft model
# The antitumor effect of administering compound A and anti-PD-1 antibody was evaluated in BALB/c mice (BALB/cAriNCriCrij, female, Japan Charles River) with 6 mice per group.
# The mouse breast cancer cell line 4T1 (ATCC) was seeded in a 6-well microplate (Falcon), at a cell count of 1.5×10^5 per well. The culture medium used was RPMI-1640 medium containing 10% FBS, penicillin, streptomycin and 2-mercaptoethanol (FujiFilm-Wako). The seeded cells were cultured overnight using an incubator under conditions of 5% CO2, 37° C. The culture medium was replaced on the following day.
# Vector pPBcmvIP-mcs was constructed from PB-CMV-MCS-EF1α-Puro vector (SBI; Catalog No.: PB510B-1), removing EF1-Puro and substituting 1RES-Puro. A Luc2/AcGFP fusion gene was then inserted between the pPBcinvIP-mcs CMV promoter and IRES to express Luciferase (Luc) and Green Fluorescent Protein (GFP), to obtain vector pPBcinvIP Luc2-AcGFP. During the process of constructing each vector, insertion of the separated fragments was confirmed by an established method.
# The vector pPBcrnvIP Luc2-AcGFP in 10 mM Tris-C1 (pH 8.0) and 1 mlbJ EDTA (pH 8.0) (“TE Buffer”) (1.67 μg), Super PiggyBac Transposase Expression Vector (System Biosciences, LLC) in TE Buffer (0.33 μg) and X-treamGene reagent (Roche) (8 μL) were mixed, and the mixture was adjusted to a total amount of 210 μL with Opti-MEM (Thermo Fischer Scientific). The obtained mixture was allowed to stand at room temperature for 15 minutes, and then added to the cultured 4T1 cells. The medium was exchanged and subculturing was carried out in a T75 flask, after which culturing was continued under conditions of 5% CO2, 37° C. After 4 days, culturing was carried out in 2 μg/mL puromycin-containing medium.
# Cells were selected twice with a flow cytometer, using AcGFP positivity as the marker. A mycoplasma removal reagent was added to the cells and culturing was continued for 8 days.
# Cells of the mouse breast cancer cell line 4T1-Luc2 AcGFP established by the method described above were suspended in HBSS (FujiFilm-Wako) to a concentration of 2×10^7/mL. The mixture was grafted into mammary gland fat of BALB/c (BALB/cAriNCriCrlj, female. Japan Charles River) in amounts of 0.05 mL each, and the antitumor effect was evaluated.
# On the 4th day after grafting, the long and short diameters of the tumors were measured using an electronic digital caliper (Digimatic™ caliper by Mitsutoyo Corp.), The mice were divided into groups in such a manner that the average tumor volumes were the same in each group. The tumor volumes were calculated by the following formula.
# as §1
# Compound A was dissolved in water for injection (Otsuka Pharmaceutical Factory, Inc.) to a concentration of 2.5 mg/mL. The anti-mouse PD-1 antibody (BioXcell) was diluted with PBS(−) (FujiFilm-Wako) to a concentration of 1 mg/mL. […]
# With the starting day of administration defined as day 0, the tumor volume of each mouse was measured on day 4, day 7, day 11 and day 14.
# The tumor volume on day 14 was statistically analyzed by a One-way ANOVA statistical test, or if […] was found in the test, by the Tukey-Kramer method. […]
# [4] = day 7, Dunnett's multiple comparison test
compound,measurement,setting,value
"CNC(=O)n1ccc2cc(Oc3ccnc(NC(=O)c4ccc(C5CCN(CCO)CC5)cc4)c3)c(OCCOC)cc21 [Compound A, 5-((2-(4-(1-(2-hydroxyethyl)piperidin-4-yl)benzamide)pyridin-4-yl)oxy)-6-(2-methoxyethoxy)-N-methyl-1H-indole-1-carboxamide]","mean tumor volume, Day 0","[1]; Day 0 (starting day of administration), BALB/c mice, 10 per group, compound A 25 mg/kg oral once per day for 7 days, anti-PD-1 antibody 200 ug/mouse intraperitoneal day 0 and 3",58.8 mm^3
same,"mean tumor volume, Day 3","[1]; Day 3, BALB/c mice, compound A 25 mg/kg oral once per day, anti-PD-1 antibody 200 ug/mouse intraperitoneal day 0 and 3",72.5 mm^3
same,"mean tumor volume, Day 7","[1]; Day 7, BALB/c mice, compound A 25 mg/kg oral once per day, anti-PD-1 antibody 200 ug/mouse intraperitoneal day 0 and 3",107.5 mm^3
same,difference in tumor volume between the control group and the treatment group,[1]; [4],No statistically significant difference
same,"mean tumor volume, Day 0","[2]; Day 0 (starting day of administration), BALB/c mice, 10 per group, compound A 25 mg/kg oral once per day for 7 days, anti-PD-1 antibody 200 μg/mouse intraperitoneal day 0 and 3",109.0 mm^3
same,"mean tumor volume, Day 3","[2]; Day 3, BALB/c mice, compound A 25 mg/kg oral once per day, anti-PD-1 antibody 200 μg/mouse intraperitoneal day 0 and 3",223.6 mm^3
same,"mean tumor volume, Day 7","[2]; Day 7, BALB/c mice, compound A 25 mg/kg oral once per day, anti-PD-1 antibody 200 μg/mouse intraperitoneal day 0 and 3",221.4 mm^3
same,difference in tumor volume between the control group and the treatment group,[2]; [4],No statistically significant difference
same,"mean tumor volume, Day 0","[3]; Day 0 (starting day of administration), 6 per group, compound A 25 mg/kg oral once per day for 14 days",77.3 mm^3
same,"mean tumor volume, Day 4","[3]; Day 4, compound A 25 mg/kg oral once per day",139.0 mm^3
same,"mean tumor volume, Day 7","[3]; Day 7, compound A 25 mg/kg oral once per day",131.2 mm^3
same,"mean tumor volume, Day 11","[3]; Day 11, compound A 25 mg/kg oral once per day",226.0 mm^3
same,"mean tumor volume, Day 14","[3]; Day 14, compound A 25 mg/kg oral once per day",314.6 mm^3

# Reference: patent US20230330081A1, “PHARMACEUTICAL COMPOSITION FOR TREATING TUMORS” (EISAI R&D MANAGEMENT CO., LTD., priority 2020, published 2023)
